Measured values from patent publication US20050209251A1, “Substituted pyrazolo-pyrimidine-4-ones” (priority 2002, published 2005).
Read-outs that look alike come from different tables or passages of the source.

Tests used:
[1] = logP determination by reversed-phase HPLC (EEC Directive 79/831 Annex V.A8), acidic range; assay type: physicochemical
Experimental: The logP values given in the table were determined in accordance with EEC Directive 79/831 Annex V.A8 by HPLC (High Performance Liquid Chromatography) using a reversed-phase column (C 18). Temperature: 43° C.
(a) Mobile phases for the determination in the acidic range: 0.1% phosphoric acid, acetonitrile; linear gradient from 10% acetonitrile to 90% acetonitrile—the corresponding measurement results in Table 1 are marked a).
Calibration was carried out using unbranched alkan-2-ones (having 3 to 16 carbon atoms) with known logP values (determination of the logP values by the retention times using linear interpolation between two successive alkanones).

weeds [2] = assay: Post-emergence test (herbicidal action); assay type: in vivo; details: test plants of 5-15 cm sprayed, rated after three weeks
Experimental: Post-Emergence Test (Herbicidal Action)
(§1) To produce a suitable preparation of active compound, 1 part by weight of active compound is mixed with the stated amount of solvent, the stated amount of emulsifier is added and the concentrate is diluted with water to the desired concentration.
Test plants of a height of 5-15 cm are sprayed with the preparation of active compound such that the particular amounts of active compound desired are applied per unit area. The concentration of the spray liquor is chosen such that the particular amounts of active compound desired are applied in 1000 l of water/ha.
(§2) After three weeks, the degree of damage to the plants is rated in % damage in comparison to the development of the untreated control.

weeds [3] = assay: Pre-emergence test (herbicidal action); assay type: in vivo; details: soil sprayed 24 hours after sowing, rated after three weeks
Experimental: Pre-Emergence Test (Herbicidal Action)
as §1
Seeds of the test plants are sown in normal soil. After 24 hours, the soil is sprayed with the preparation of active compound such that the particular amount of active compound desired is applied per unit area. The concentration of active compound in the spray liquor is chosen such that the particular amount of active compound desired is applied in 1000 litres of water per hectare.
as §2

[4] = pH 2, HPLC, C18 reversed-phase column, read-out: logP (pH 2)

Row | Compound | logP a) (Table 1, Physical data) [1] | also measured
1 | O=c1[nH]c(C(F)(F)F)nc2c1cnn2-c1ncc(C(F)(F)F)cc1Cl [Example 37] | (I) logP = 2.42^a) | –
2 | CCOC(=O)COc1nc(C(F)(F)F)nc2c1cnn2-c1ncc(C(F)(F)F)cc1Cl [Example 42] | (Ia) logP = 4.05^a) | –
3 | NC(=O)c1cnn(-c2ncc(C(F)(F)F)cc2Cl)c1NC(=O)C1(F)CC1 [VI-1, 5-(1-fluorocyclopropylcarbonylamino)-1-(3-chloro-5-trifluoromethylpyridin-2-yl)pyrazole-4-carboxamide] | – | melting point: 204 °C; chromatographic logP [1, 4]: 2.02
4 | COc1nc(C(F)(F)F)nc2c1cnn2-c1ncc(Cl)cc1Cl [Example 72] | (Ia) logP = 3.76^a) | –
5 | Cc1nc2c(cnn2-c2nn(C)c(OC(F)F)c2Cl)c(=O)[nH]1 [Example 98] | (I) logP = 1.40^a)m.p. = 254 °C | –
6 | CCCc1nc2c(cnn2-c2ncc(C(F)(F)F)cc2Cl)c(=O)[nH]1 [Example 23] | (I) logP = 2.28^a) | –
7 | CC(C)Oc1nc(C2CC2)nc2c1cnn2-c1ncc(C(F)(F)F)cc1Cl [Example 52] | (Ia) logP = 4.86^a) | –
8 | FC(F)Oc1nc(C2CC2)nc2c1cnn2-c1ncc(C(F)(F)F)cc1Cl [Example 57] | (Ia) logP = 4.24^a) | herbicidal action against weeds (degree of damage) (weeds [2]): strong action against weeds; herbicidal action against weeds (degree of damage) (weeds [3]): strong action against weeds
9 | COc1nc(C(C)(C)C)nc2c1cnn2-c1ncc(C(F)(F)F)cc1Cl [Example 27] | (Ia) logP = 2.74^a) | herbicidal action against weeds (degree of damage) (weeds [2]): strong action against weeds; herbicidal action against weeds (degree of damage) (weeds [3]): strong action against weeds
10 | CCOC(=O)COc1nc(C2CC2)nc2c1cnn2-c1ncc(C(F)(F)F)cc1Cl [Example 58] | (Ia) logP = 3.88^a) | –
11 | CCOC(=O)c1nc2c(cnn2-c2ncc(C(F)(F)F)cc2Cl)c(=O)n1C [Example 46] | (I) logP = 2.74^a) | –
12 | CC(C)Cc1nc2c(cnn2-c2ncc(C(F)(F)F)cc2Cl)c(=O)[nH]1 [Example 25] | (I) logP = 2.52^a) | –
13 | 1-(3-chloro-5-trifluoromethylpyridin-2-yl)-4-methoxy-6-cyclopropylpyrazolopyrimidin-4-one [Example 110] | (Ia) logP = 3.97^a) | herbicidal action against weeds (degree of damage) (weeds [2]): strong action against weeds; logP (pH 2) ([1]; pH 2): 3.97
14 | CC(C)c1nc2c(cnn2-c2ncc(C(F)(F)F)cc2Cl)c(=O)n1C [Example 18] | (I) logP = 2.89^a) | herbicidal action against weeds (degree of damage) (weeds [2]): strong action against weeds; herbicidal action against weeds (degree of damage) (weeds [3]): strong action against weeds
15 | CCc1nc2c(cnn2-c2ncc(C(F)(F)F)cc2Cl)c(=O)[nH]1 [Example 13] | (I) logP = 2.39^a) | –
16 | CCOc1nc(C2CC2)nc2c1cnn2-c1ncc(C(F)(F)F)cc1Cl [Example 51] | (Ia) logP = 4.42^a) | –
17 | NC(=O)c1cnn(-c2ncc(Cl)cc2Cl)c1N [II-2] | – | logP a) (Table 2, Physical data) [1]: logP = 1.02^a)
18 | O=c1[nH]c(C(Cl)Cl)nc2c1cnn2-c1ncc(C(F)(F)F)cc1Cl [Example 12] | (I) logP = 2.39^a) | –
19 | CCCc1nc2c(cnn2-c2ncc(C(F)(F)F)cc2Cl)c(=O)n1C [Example 24] | (I) logP = 2.81^a) | herbicidal action against weeds (degree of damage) (weeds [2]): strong action against weeds; herbicidal action against weeds (degree of damage) (weeds [3]): strong action against weeds
20 | Cn1cnc2c(cnn2-c2ncc(C(F)(F)F)cc2Cl)c1=O [Example 2, 1-(3-chloro-5-trifluoromethylpyridin-2-yl)-5-methyl-1,5-dihydropyrazolo[3,4-d]pyrimidin-4-one] | – | melting point: 253 °C; chromatographic logP [1, 4]: 1.76
21 | O=c1[nH]c(C2CC2)nc2c1cnn2-c1ncc(C(F)(F)F)cc1Cl [Example 5, 1-(3-chloro-5-trifluoromethylpyridin-2-yl)-6-cyclopropyl-1,5-dihydropyrazolo[3,4-d]pyrimidin-4-one] | – | melting point: 239 °C; chromatographic logP [1, 4]: 2.19
22 | CC(C)(CCl)C(=O)Nc1c(C(N)=O)cnn1-c1ncc(C(F)(F)F)cc1Cl [VI-3] | – | logP a) (Table 3, Physical data) [1]: logP = 2.26^a)
23 | CCn1c(C2CC2)nc2c(cnn2-c2ncc(C(F)(F)F)cc2Cl)c1=O [Example 50] | (I) logP = 2.96^a) | –
24 | Cn1c(C2CCC2)nc2c(cnn2-c2ncc(C(F)(F)F)cc2Cl)c1=O [Example 64] | (I) logP = 3.03^a) | herbicidal action against weeds (degree of damage) (weeds [2]): strong action against weeds; herbicidal action against weeds (degree of damage) (weeds [3]): strong action against weeds

Row | Compound | logP a) (Table 1, Physical data) [1] | also measured
25 | O=c1[nH]cnc2c1cnn2-c1ncc(C(F)(F)F)cc1Cl [Example 1, 1-(3-chloro-5-trifluoromethylpyridin-2-yl)-1,5-dihydropyrazolo[3,4-d]pyrimidin-4-one] | – | melting point: 331 °C; chromatographic logP [1, 4]: 1.54
26 | CC(C)c1nc2c(cnn2-c2ccc(C(F)(F)F)cc2Cl)c(=O)n1C [Example 84] | (I) logP = 3.52^a) | –
27 | CC(C)c1nc2c(cnn2-c2ncc(C(F)(F)F)cc2Cl)c(=O)[nH]1 [Example 17] | (I) logP = 2.36^a) | –
28 | Cn1c(C2CC2)nc2c(cnn2-c2ncc(C(F)(F)F)cc2Cl)c1=O [Example 109, 1-(3-chloro-5-trifluoromethylpyridin-2-yl)-5-methyl-6-cyclopropyl-1,5-dihydropyrazolo[3,4-d]pyrimidin-4-one] | – | herbicidal action against weeds (degree of damage) (weeds [2]): strong action against weeds; herbicidal action against weeds (degree of damage) (weeds [3]): strong action against weeds; chromatographic logP [1, 4]: 2.61; chromatographic logP ([1]; reversed-phase HPLC column (C18); acidic range: 0.1% phosphoric acid, acetonitrile gradient; C18; 43° C.; read-out: logP a) (Table 1, Physical data)): 2.61
29 | Cn1c(C(F)(F)F)nc2c(cnn2-c2ncc(C(F)(F)F)cc2Cl)c1=O [Example 38] | (I) logP = 3.11^a) | –
30 | Cc1nc2c(cnn2-c2ncc(C(F)(F)F)cc2Cl)c(=O)n1C [Example 8] | (I) logP = 1.97^a) | herbicidal action against weeds (degree of damage) (weeds [3]): strong action against weeds
31 | Cn1nc(-n2ncc3c(=O)n(C)c(C4CC4)nc32)c(Cl)c1OC(F)F [Example 107] | (I) logP = 2.21^a)m.p. = 220 °C | –
32 | COc1nc(C2(F)CC2)nc2c1cnn2-c1ncc(C(F)(F)F)cc1Cl [Example 60] | (Ia) logP = 3.73^a) | herbicidal action against weeds (degree of damage) (weeds [2]): strong action against weeds; herbicidal action against weeds (degree of damage) (weeds [3]): strong action against weeds
33 | C#CCn1c(C2CC2)nc2c(cnn2-c2ncc(C(F)(F)F)cc2Cl)c1=O [Example 56] | (I) logP = 2.95^a) | –
34 | Cc1nc2c(cnn2-c2nn(C)c(OC(F)F)c2Cl)c(=O)n1C [Example 99] | (I) logP = 1.68^a)m.p. = 199 °C | –
35 | O=c1[nH]c(C2CCC2)nc2c1cnn2-c1ncc(C(F)(F)F)cc1Cl [Example 63] | (I) logP = 2.46^a) | –
36 | Cc1nc2c(cnn2-c2ccc(C(F)(F)F)cc2Cl)c(=O)n1C [Example 81] | (I) logP = 2.30^a) | –
37 | O=c1[nH]c(C(F)(F)C(F)(F)F)nc2c1cnn2-c1ncc(C(F)(F)F)cc1Cl [Example 44] | (I) logP = 2.84^a) | –
38 | Cn1nc(-n2ncc3c(=O)[nH]c(C4CC4)nc32)cc1OC(F)F [Example 101] | (I) logP = 1.59^a) | –
39 | COc1nc(C2CC2)nc2c1cnn2-c1cc(OC(F)F)n(C)n1 [Example 103] | (Ia) logP = 3.02^a) | –
40 | Cn1nc(-n2ncc3c(=O)[nH]c(C4CC4)nc32)c(Cl)c1OC(F)F [Example 106] | (I) logP = 1.85^a)m.p. = 210 °C | –
41 | Cn1nc(-n2ncc3c(=O)n(C)c(C4CC4)nc32)cc1OC(F)F [Example 102] | (I) logP = 1.90^a) | –
42 | O=c1[nH]c(C(F)(F)Cl)nc2c1cnn2-c1ncc(C(F)(F)F)cc1Cl [Example 43] | (I) logP = 2.53^a) | –
43 | COc1nc(C(F)(F)F)nc2c1cnn2-c1ncc(C(F)(F)F)cc1Cl [Example 39] | (Ia) logP = 3.99^a) | herbicidal action against weeds (degree of damage) (weeds [2]): strong action against weeds
44 | CC(C)(C)C(=O)Nc1c(C(N)=O)cnn1-c1ncc(C(F)(F)F)cc1Cl [VI-2] | – | logP a) (Table 3, Physical data) [1]: logP = 2.20^a)
45 | CC(C)(C)c1nc2c(cnn2-c2ncc(C(F)(F)F)cc2Cl)c(=O)[nH]1 [Example 26] | (I) logP = 2.74^a) | –
46 | Cc1nc2c(cnn2-c2ncc(C(F)(F)F)cc2Cl)c(=O)[nH]1 [Example 7] | (I) logP = 1.64^a) | –
47 | Cn1c(C2(F)CC2)nc2c(cnn2-c2ncc(C(F)(F)F)cc2Cl)c1=O [Example 59] | (I) logP = 2.82^a) | herbicidal action against weeds (degree of damage) (weeds [2]): strong action against weeds; herbicidal action against weeds (degree of damage) (weeds [3]): strong action against weeds
